From patent US20240309014A1, “MACROCYCLIC COMPOUNDS AND USES THEREOF” (President and Fellows of Harvard College, priority 2017, published 2024)

System: α-SMA expression in BJ normal human fibroblasts
Test: α-SMA expression in BJ fibroblasts co-cultivated with FaDu cells
Format: cell-based
Details: BJ cells co-cultured with FaDu for three days
Description: FIG. 19A. BJ cells (normal human […] fibroblasts) were co-cultured with FaDu cells for three days in the absence (vehicle) or presence of A83-01, a potent selective TGF-β-R inhibitor, and the expression of α-SMA was analysed by immunofluorescence staining (red color). Samples were also stained with anti-pan-human cytokeratin (green color) for cancer cell staining and DAPI (blue color) for nuclear staining. FIGS. 19B-19E BJ cells were treated with Compound (1) (0.15 nmol/L in immunofluorescence staining data and indicated concentrations in western blot analysis data) and TGF-β for 2 days. FIGS. 19B-19E. Samples were stained with the indicated antibody (red color) and DAPI (blue color) for nuclear staining. FIG. 19E Western blot images and quantification of the images. […] FIGS. 19G and 19E BJ cells were pretreated with defactinib (1 μmol/L) and TGF-β for 2 days. The lens magnification used was x4 (FIGS. 19A, 19B, 19C, 19G, and 19H) or x40 (FIGS. 19D and 19E).
The expression of α-SMA was induced in BJ normal human fibroblasts upon co-cultivation with FaDu cells, and the expression was attenuated by treatment with A83-01, a potent selective inhibitor of the TGF-β-receptor (FIG. 19A).

Cc1cccc(-c2nn(C(=S)Nc3ccccc3)cc2-c2ccnc3ccccc23)n1 [Compound A83-01]
expression of α-SMA induced upon co-cultivation with FaDu cells: attenuated
